The target of one assay is hERG channels (Homo sapiens, UniProt Q12809). Description: biochemical.
In assay [1] the target is T1, IGF1R (Homo sapiens, UniProt P08069). Description: Enzymatic kinase assay (filter-binding/flashplate). The class given is biochemical. The method, then:
(§1) Two methods were used to analyze phosphorylated peptides and proteins produced by the listed tyrosine and serine/threonine-specific protein kinases: either using a filter-binding assay (FB), or using a flashplate assay (FP). The activities of protein kinases were assayed in the presence or absence of inhibitors, by measuring the incorporation of ^33P from [γ^33P]ATP into appropriate substrates.
(§2) 96-well polypropylene microplates were used to assay the activity in the FB mode. To determine the inhibitory activity of compounds 10 μL of compound dilutions were pipetted into 96-well plates followed by the addition of 10 μL of assay mix and 10 μL of individual enzymes. With the addition of the enzymes the reactions were initiated and continued at RT. […] The final concentration of DMSO in the enzyme assays was 1%.
(§3) Flashplates are available as 96-well standard (STFPs) or as streptavidin-(SAFPs) or nickel coated FPs (NiFPs) from Perkin Elmer. STFPs are 96-well polystyrene microplates in which the interior of each well is permanently coated with a thin layer of polystyrene-based scintillant. Streptavidin flashplates (SAFP) are 96 or 384-well STFPs coated with streptavidin. SAFPs are suitable for a wide variety of assay applications which utilize biotinylated capture molecules. NiFP or nickel chelate flashplates are 96- or 384-well STFPs coated with nickel chelate. NiFPs are designed for in-plate, radiometric assays which utilize 4- or 6-histidine tagged proteins and peptides.
(§4) All kinase assays were performed in STFPs for 60 mins at RT and stopped with 50 μL of 0.5% H3PO4 except PKA which were carried out in polypropylene 96- and 384-well plates, respectively. […] All wells were then washed three times with 200 μL of 0.5% H3PO4 and the plates were dried at room temperature. The plates were sealed and counted in a microplate scintillation counter (TopCount NXT, TopCount NXT HTS). The final concentration of DMSO in the enzyme assays was 1%.

Another assay addresses InsR (Homo sapiens, UniProt P06213). Description: Enzymatic kinase assay (filter-binding/flashplate). To be noted: enzymatic; read-out: InsR IC50 values. In kind it is biochemical. How it is done: as §1, §2, §3, §4
Another assay deals with LCK (Homo sapiens, UniProt P06239). In words: Enzymatic kinase assay. In kind it is biochemical. The method, then: as §1, §2, §3, §4
A further assay addresses KDR (Homo sapiens, UniProt P35968). Description: Enzymatic kinase assay. The class given is biochemical. How it is done: as §1, §2, §3, §4
A further assay deals with cKIT (Homo sapiens, UniProt P10721). Description: Enzymatic kinase assay. In kind it is biochemical. The method, then: as §1, §2, §3, §4
In a further assay the target is PDGFRa (Homo sapiens, UniProt P16234). In words: Enzymatic kinase assay. In kind it is biochemical. The method, then:
as §1, §2, §3, §4

A further assay concerns the target HER2 (Homo sapiens, UniProt P04626). Description: Enzymatic kinase assay. The class given is biochemical. The method, then: as §1, §2, §3, §4
For a further assay, the target named is ERK2 (Homo sapiens, UniProt P28482). Description: Enzymatic kinase assay. The class given is biochemical. How it is done:
as §1, §2, §3, §4

Another assay has as its target COT1 (Homo sapiens, UniProt P41279). Description: Enzymatic kinase assay. In kind it is biochemical. How it is done:
as §1, §2, §3, §4

In another assay the target is P38a (Homo sapiens, UniProt Q16539). Description: Enzymatic kinase assay. The class given is biochemical. The method, then: as §1, §2, §3, §4
P38a, sequence (Q16539 whole entry): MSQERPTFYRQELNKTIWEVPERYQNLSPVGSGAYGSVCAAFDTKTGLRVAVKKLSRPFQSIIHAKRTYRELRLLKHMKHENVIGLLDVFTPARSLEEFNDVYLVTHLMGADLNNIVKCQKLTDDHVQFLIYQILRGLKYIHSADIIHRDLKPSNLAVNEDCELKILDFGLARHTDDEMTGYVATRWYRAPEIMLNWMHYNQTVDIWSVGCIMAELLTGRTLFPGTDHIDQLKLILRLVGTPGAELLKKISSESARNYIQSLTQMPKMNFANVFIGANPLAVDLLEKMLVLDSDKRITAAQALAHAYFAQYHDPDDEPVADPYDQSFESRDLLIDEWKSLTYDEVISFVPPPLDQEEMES
Another assay has as its target T2, Aurora A (Homo sapiens, UniProt O14965).
T2 sequence (O14965 1-403): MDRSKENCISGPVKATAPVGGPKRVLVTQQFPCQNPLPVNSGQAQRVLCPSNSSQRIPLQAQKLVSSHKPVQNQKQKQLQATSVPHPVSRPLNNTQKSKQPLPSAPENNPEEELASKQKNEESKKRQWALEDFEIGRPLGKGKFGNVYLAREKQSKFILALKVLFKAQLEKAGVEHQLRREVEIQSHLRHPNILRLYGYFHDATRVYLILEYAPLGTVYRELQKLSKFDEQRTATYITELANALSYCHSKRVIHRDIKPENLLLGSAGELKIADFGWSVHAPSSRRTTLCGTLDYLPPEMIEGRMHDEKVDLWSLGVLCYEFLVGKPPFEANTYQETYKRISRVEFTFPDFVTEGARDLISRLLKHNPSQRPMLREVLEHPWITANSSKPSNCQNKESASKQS
In words: Enzymatic kinase assay. In kind it is biochemical. How it is done:
as §1, §2, §3, §4

For another assay, the target named is FGFR-4 (Homo sapiens, UniProt P22455). Description: Enzymatic kinase assay. In kind it is biochemical. How it is done: as §1, §2, §3, §4
FGFR-4, sequence (P22455 22-802, species assumed): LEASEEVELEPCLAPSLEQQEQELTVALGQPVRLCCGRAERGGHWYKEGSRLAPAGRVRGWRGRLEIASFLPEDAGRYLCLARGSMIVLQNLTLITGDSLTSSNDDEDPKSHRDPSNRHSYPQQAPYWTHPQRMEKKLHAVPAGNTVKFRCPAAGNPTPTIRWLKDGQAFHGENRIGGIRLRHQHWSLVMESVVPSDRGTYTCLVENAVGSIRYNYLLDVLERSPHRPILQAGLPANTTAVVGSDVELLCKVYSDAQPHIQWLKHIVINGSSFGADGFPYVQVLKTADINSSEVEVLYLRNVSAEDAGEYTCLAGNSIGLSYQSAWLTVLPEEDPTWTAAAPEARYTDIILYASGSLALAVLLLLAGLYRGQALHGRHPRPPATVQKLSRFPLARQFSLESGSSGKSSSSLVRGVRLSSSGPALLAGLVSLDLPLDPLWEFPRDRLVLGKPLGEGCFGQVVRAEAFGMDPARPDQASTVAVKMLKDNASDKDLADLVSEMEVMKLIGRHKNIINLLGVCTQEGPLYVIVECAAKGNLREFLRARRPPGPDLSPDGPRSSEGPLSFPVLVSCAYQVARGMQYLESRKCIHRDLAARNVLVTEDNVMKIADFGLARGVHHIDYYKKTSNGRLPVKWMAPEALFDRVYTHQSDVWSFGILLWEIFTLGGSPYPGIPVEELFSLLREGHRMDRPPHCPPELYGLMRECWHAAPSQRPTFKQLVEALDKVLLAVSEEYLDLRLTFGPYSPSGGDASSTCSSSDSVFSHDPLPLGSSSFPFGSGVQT
A further assay deals with CDK2A (Homo sapiens, UniProt P24941). In words: Enzymatic kinase assay. In kind it is biochemical. How it is done:
as §1, §2, §3, §4

For another assay, the target named is EphA4 (Homo sapiens, UniProt P54764). In words: Enzymatic kinase assay. The class given is biochemical. How it is done: as §1, §2, §3, §4
In the next assay the target is MK2 (Homo sapiens, UniProt P49137). In words: Enzymatic kinase assay. In kind it is biochemical. The method, then: as §1, §2, §3, §4
MK2, sequence (P49137 whole entry, species assumed): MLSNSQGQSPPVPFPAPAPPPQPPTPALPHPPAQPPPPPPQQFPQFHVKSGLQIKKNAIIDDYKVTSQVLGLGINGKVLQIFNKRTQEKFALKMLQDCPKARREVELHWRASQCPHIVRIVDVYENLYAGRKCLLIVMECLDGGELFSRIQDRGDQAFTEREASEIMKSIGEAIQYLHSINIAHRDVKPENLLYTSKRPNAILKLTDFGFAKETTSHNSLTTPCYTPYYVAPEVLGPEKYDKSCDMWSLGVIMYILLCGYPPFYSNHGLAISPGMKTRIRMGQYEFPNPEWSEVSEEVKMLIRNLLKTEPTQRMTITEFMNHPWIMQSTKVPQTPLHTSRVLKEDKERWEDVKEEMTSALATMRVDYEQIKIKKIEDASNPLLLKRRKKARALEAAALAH
The target of the next assay is cMET (Homo sapiens, UniProt P08581). Description: Enzymatic kinase assay. The class given is biochemical. The method, then: as §1, §2, §3, §4
cMET, sequence (P08581 25-1390): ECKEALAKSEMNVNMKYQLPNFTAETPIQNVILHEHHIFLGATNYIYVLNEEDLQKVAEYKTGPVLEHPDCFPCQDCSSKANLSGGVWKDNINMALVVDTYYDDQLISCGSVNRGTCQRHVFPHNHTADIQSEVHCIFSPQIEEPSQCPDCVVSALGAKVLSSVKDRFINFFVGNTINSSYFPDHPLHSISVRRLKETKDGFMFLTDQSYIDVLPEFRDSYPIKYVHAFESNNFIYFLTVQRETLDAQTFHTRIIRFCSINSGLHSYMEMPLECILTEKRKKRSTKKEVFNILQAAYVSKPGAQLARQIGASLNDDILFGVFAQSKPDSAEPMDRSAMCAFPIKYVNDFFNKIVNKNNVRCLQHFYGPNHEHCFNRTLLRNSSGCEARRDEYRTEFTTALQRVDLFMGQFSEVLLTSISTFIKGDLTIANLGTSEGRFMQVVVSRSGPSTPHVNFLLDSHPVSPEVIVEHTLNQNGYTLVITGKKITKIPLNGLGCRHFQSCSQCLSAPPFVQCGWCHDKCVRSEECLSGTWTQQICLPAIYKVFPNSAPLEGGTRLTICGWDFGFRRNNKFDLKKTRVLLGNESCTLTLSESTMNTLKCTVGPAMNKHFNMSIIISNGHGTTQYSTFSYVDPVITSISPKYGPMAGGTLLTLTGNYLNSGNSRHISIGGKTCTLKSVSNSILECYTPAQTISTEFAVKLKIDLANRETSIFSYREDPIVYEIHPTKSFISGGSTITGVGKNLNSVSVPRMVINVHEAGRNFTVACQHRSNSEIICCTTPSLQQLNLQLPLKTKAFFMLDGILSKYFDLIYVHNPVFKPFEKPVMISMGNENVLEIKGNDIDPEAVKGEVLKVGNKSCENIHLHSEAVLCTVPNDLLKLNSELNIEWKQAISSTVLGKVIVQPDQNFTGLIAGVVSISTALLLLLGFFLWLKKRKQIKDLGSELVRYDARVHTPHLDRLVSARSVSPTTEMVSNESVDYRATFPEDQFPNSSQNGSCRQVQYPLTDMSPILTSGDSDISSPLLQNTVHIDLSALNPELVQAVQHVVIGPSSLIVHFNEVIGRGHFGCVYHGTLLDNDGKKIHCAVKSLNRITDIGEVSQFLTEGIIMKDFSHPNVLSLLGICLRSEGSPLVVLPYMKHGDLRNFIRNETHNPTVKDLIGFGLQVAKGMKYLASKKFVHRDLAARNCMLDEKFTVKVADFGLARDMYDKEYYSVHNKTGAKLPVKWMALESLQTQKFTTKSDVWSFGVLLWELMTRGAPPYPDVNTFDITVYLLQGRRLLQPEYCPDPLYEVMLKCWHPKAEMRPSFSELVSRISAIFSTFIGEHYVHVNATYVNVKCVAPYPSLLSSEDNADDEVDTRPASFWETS
For the next assay, the target named is RET (Homo sapiens, UniProt P07949). Description: Enzymatic kinase assay. In kind it is biochemical. Particulars: enzymatic; read-out: RET IC50 values (converted). The method, then: as §1, §2, §3, §4
The target in another assay is TYK2 (Homo sapiens, UniProt P29597). Description: Enzymatic kinase assay. The class given is biochemical. The method, then:
as §1, §2, §3, §4

The target in a further assay is GSK3beta (Homo sapiens, UniProt P49841). In words: Enzymatic kinase assay. In kind it is biochemical. The method, then:
as §1, §2, §3, §4

In a further assay the target is cABLT315 (Homo sapiens, UniProt P00519, T315I). Description: Enzymatic kinase assay. In kind it is biochemical. How it is done: as §1, §2, §3, §4
The target of another assay is JAK2 (Homo sapiens, UniProt O60674). In words: Enzymatic kinase assay. The class given is biochemical. How it is done: as §1, §2, §3, §4
JAK2, sequence (O60674 whole entry, species assumed): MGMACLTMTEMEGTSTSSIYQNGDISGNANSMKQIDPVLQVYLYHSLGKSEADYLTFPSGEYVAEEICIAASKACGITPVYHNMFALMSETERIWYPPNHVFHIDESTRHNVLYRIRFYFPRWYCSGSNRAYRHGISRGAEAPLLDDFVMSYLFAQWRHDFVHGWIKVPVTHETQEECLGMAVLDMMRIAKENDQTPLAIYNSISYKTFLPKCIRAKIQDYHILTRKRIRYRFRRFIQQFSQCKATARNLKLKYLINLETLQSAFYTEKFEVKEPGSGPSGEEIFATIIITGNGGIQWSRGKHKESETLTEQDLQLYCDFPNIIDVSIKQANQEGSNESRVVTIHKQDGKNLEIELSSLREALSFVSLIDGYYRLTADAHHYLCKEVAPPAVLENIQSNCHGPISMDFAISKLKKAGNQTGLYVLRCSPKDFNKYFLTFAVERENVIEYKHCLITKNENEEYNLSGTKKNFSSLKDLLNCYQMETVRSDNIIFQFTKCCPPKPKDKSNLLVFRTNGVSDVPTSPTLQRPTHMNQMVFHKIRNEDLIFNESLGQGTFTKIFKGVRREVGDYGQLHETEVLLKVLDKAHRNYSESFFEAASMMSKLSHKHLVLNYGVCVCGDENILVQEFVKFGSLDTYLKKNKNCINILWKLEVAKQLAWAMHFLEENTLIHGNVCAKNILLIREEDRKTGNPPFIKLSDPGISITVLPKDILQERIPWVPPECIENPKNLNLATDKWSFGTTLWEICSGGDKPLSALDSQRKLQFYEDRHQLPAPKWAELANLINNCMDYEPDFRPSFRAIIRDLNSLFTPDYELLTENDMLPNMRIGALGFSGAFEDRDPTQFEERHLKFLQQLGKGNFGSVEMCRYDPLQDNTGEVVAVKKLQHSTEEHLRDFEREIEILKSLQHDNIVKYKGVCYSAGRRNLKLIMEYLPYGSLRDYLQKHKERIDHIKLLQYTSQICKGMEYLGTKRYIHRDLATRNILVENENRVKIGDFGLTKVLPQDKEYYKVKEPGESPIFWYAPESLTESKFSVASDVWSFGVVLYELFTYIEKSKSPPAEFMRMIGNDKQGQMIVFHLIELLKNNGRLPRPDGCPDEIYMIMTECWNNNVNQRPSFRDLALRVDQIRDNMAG
Assay [2] has as its target T1, IGF1R. In words: Cellular IGF-1R assay: inhibition of IGF1R phosphorylation in Hek293 cells, capture ELISA (MSD). To be noted: IGF-triggered receptor phosphorylation. Further details: expressed in transfected cells; host or cells: Hek293 (Hek293-IGF1R). In kind it is cell-based. How it is done:
IVa. Cellular IGF-1R and InsR Assays
Compound-mediated inhibition of IGF1R and INSR phosphorylation in Hek293 cells transduced with the corresponding receptors is assessed in a capture ELISA format using the MSD (Meso Scale Discovery) platform. Briefly, 30′000 cells washed and diluted in starvation medium (DMEM high glucose supplemented with 0.1% BSA) are seeded in 90 μL per well into 96-well plates pre-coated with poly-D-lysine (0.1 mg/mL in PBS/O). After 24 h incubation at 37° C. and 5% CO2, dose-response effects are determined with 3-fold serial compound dilutions, starting at 10 μM. The final vehicle concentration is 0.1% DMSO in all wells. Following pre-incubation with compounds for 1 h, receptor phosphorylation is triggered by a 10 min exposure to 1.0 ng/μL IGF for Hek293-IGF1R cells, and 5.0 ng/μL insulin for Hek293-InsR cells. Cell lysis is achieved by addition of 80 μL MSD lysis buffer per aspirated well, incubation on ice for 20 min, and a freeze-thaw cycle. Target phosphorylation is then assessed by transferring volumes corresponding to approx. 6 μg Hek293-IGF1R or 0.6 μg Hek293-InsR lysates to MSD assay plates pre-coated with total-IGF1R or total-InsR Abs, respectively. […] Immune complexes are detected by a SULFO-Tag™-coupled anti-rabbit IgG antibody in the presence of 150 μL MSD read-buffer. Light emission at 620 nm triggered by application of electric current is recorded on a MSD Sectorlmager 6000. Acquired raw data (mean Ru-ECL units) are processed in an Excel analysis template. The plate blank (MSD lysis buffer) is subtracted from all data points. The effect of a particular test compound concentration on receptor phosphorylation is expressed relative to the window defined by ligand-stimulated vs unstimulated control cells (set as 100%). IC50 values [nM] are determined using 4-parametric curve-fitting (XLfit software, V4.3.2).

The text below walks through data of patent US20130338152A1, “FLUOROPHENYL BICYCLIC HETEROARYL COMPOUNDS” (IRM LLC, priority 2011, published 2013).

PDGFRa, sequence (P16234 24-1089, species assumed): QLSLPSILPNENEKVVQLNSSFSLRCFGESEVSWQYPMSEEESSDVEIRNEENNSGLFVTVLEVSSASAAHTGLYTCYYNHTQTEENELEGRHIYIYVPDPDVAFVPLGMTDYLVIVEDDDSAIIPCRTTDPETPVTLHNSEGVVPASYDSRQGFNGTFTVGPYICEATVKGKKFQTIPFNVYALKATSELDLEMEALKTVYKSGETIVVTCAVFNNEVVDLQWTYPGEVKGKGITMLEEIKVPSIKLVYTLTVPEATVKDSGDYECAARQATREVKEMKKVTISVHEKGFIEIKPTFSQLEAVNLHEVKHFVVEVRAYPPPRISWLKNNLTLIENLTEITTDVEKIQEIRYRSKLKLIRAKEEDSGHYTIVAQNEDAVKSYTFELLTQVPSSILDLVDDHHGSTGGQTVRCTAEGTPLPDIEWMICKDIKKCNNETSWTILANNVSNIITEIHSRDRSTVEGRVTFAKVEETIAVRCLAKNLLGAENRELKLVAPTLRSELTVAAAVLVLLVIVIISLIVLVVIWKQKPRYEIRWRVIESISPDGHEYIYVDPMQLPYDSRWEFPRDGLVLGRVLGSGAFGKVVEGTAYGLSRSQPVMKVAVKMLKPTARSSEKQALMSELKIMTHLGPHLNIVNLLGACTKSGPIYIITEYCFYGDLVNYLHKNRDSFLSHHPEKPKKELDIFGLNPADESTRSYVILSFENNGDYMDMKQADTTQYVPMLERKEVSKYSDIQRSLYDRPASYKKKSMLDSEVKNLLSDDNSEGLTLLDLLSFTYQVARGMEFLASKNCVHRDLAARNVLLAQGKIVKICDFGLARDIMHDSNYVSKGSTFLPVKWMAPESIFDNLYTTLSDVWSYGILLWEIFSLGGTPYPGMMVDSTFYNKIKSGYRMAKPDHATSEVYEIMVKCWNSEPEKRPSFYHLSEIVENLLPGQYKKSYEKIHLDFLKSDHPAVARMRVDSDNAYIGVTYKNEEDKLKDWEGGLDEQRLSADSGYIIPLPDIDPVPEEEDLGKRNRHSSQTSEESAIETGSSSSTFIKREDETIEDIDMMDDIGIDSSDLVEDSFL

The IC50 is the concentration needed to halve the response being measured. In the case of `Nc1ncnc2c1c(-c1cccc(OC[C@@H]3CCCO3)c1F)cn2C1CC2(CNC(=O)O2)C1` (stereo partly drawn) [Example 4, 2-(4-Amino-5-{2-fluoro-3-[(S)-1-(tetrahydro-furan-2-yl)methoxy]-phenyl}-pyrrolo[2,3-d]pyrimidin-7-yl)-5-oxa-7-aza-spiro[3.4]octan-6-one], the concentration for half-maximal inhibition (IC50) was 8.7 µM against hERG channels; 13 nM on IGF1R [1]; 250 nM on InsR; greater than 10 µM at LCK; 4.5 µM on KDR; greater than 10 µM against cKIT. Also, the IC50 on PDGFRa, at HER2, at ERK2, against COT1, against P38a and on Aurora A was greater than 10 µM throughout. In addition, the half-inhibitory concentration (IC50) against FGFR-4, against CDK2A, at EphA4, against MK2, on cMET and on RET was greater than 10 µM throughout. Further, the IC50 against TYK2 is greater than 10 µM; at GSK3beta, greater than 10 µM; against cABLT315, greater than 10 µM; against JAK2, greater than 10 µM; against IGF1R [2], 17 nM.
Turning to `[2H]C1([2H])C([2H])([2H])C2(COc3cccc(-c4cn([C@H]5C[C@](O)(CO)C5)c5ncnc(N)c45)c3F)OC1([2H])C([2H])([2H])C2([2H])[2H]` [Example 27, d9-(Z)-3-{4-Amino-5-[2-fluoro-3-(7-oxa-bicyclo[2.2.1]hept-1-ylmethoxy)-phenyl]-pyrrolo[2,3-d]pyrimidin-7-yl}-1-hydroxymethyl-cyclobutanol], the concentration for half-maximal inhibition (IC50) on hERG channels was greater than 30 µM; at IGF1R [1], 22 nM; on InsR it was 130 nM; at LCK, 6.6 µM; against KDR it was greater than 10 µM; on cKIT, greater than 10 µM. For the same compound, the IC50 at PDGFRa, at HER2, against ERK2, against COT1, on P38a and against Aurora A was greater than 10 µM throughout. For the same compound, the IC50 on FGFR-4, against CDK2A, at EphA4, against MK2, at cMET and at RET was greater than 10 µM in each case. Further, the IC50 against TYK2, against GSK3beta, against cABLT315 and against JAK2 was greater than 10 µM in each case.
Take `CC(=O)N1CCN([C@H]2C[C@H](n3cc(-c4cc(OC[C@@H]5CCCO5)ccc4F)c4c(N)ncnc43)C2)CC1` [Example 36, 1-{4-[trans-3-(4-Amino-5-{2-fluoro-5-[(S)-1-(tetrahydro-furan-2-yl)methoxy]-phenyl}-pyrrolo[2,3-d]pyrimidin-7-yl)-cyclobutyl]-piperazin-1-yl}-ethanone]: the 50% inhibitory concentration (IC50) against hERG channels was greater than 30 µM; on IGF1R [1] it was 30 nM; on InsR, 1300 nM; against LCK, 9.7 µM; against KDR it was greater than 10 µM; against cKIT, greater than 10 µM. Also, the concentration for half-maximal inhibition (IC50) against PDGFRa, against HER2, against ERK2, on COT1, against P38a and at Aurora A was greater than 10 µM in each case. Moreover, the IC50 at FGFR-4 was greater than 10 µM; against CDK2A, greater than 10 µM; on EphA4 it was greater than 10 µM; on MK2, greater than 10 µM; on cMET it was greater than 10 µM; on RET, 3.1 µM. For the same compound, the IC50 on TYK2, on GSK3beta, on cABLT315 and at JAK2 was greater than 10 µM each time.
For `Nc1ncnc2c1c(-c1cc(OC[C@@H]3CCCO3)ccc1F)cn2[C@H]1C[C@@H](N2CCN(C(=O)CO)CC2)C1` [Example 40, 1-{4-[cis-3-(4-Amino-5-{2-fluoro-5-[(S)-1-(tetrahydro-furan-2-yl)methoxy]-phenyl}-pyrrolo[2,3-d]pyrimidin-7-yl)-cyclobutyl]-piperazin-1-yl}-2-hydroxy-ethanone], the 50% inhibitory concentration (IC50) on hERG channels is greater than 30 µM; on IGF1R [1], 8.7 nM; on InsR, 270 nM; on LCK, greater than 10 µM; against KDR it was 9.2 µM; against cKIT, greater than 10 µM. Besides, the 50% inhibitory concentration (IC50) on PDGFRa, at HER2, at ERK2, on COT1, against P38a and against Aurora A was greater than 10 µM each time. Also, the IC50 on FGFR-4, at CDK2A, at EphA4, at MK2, on cMET and at RET was greater than 10 µM throughout. In addition, the half-inhibitory concentration (IC50) on TYK2, against GSK3beta, at cABLT315 and at JAK2 was greater than 10 µM in each case.
